Our source for the IC50 values is patent US20230086703A1, “N-(4-(5-chloropyridin-3-yl)phenyl)-2-(2-(cyclopropanesulfonamido)pyrimidin-4-yl) butanamide derivatives and related compounds as human CTPS1 inhibitors for the treatment of proliferative diseases” (Step Pharma S.A.S., priority 2019, published 2023).

This assay has as its target T1, human CTPS1 (Homo sapiens, UniProt P17812).
T1 construct: FLAG (with GG linker); His8 (with GG linker); purchased Proteros biostructures GmbH
T1 sequence (P17812 1-591): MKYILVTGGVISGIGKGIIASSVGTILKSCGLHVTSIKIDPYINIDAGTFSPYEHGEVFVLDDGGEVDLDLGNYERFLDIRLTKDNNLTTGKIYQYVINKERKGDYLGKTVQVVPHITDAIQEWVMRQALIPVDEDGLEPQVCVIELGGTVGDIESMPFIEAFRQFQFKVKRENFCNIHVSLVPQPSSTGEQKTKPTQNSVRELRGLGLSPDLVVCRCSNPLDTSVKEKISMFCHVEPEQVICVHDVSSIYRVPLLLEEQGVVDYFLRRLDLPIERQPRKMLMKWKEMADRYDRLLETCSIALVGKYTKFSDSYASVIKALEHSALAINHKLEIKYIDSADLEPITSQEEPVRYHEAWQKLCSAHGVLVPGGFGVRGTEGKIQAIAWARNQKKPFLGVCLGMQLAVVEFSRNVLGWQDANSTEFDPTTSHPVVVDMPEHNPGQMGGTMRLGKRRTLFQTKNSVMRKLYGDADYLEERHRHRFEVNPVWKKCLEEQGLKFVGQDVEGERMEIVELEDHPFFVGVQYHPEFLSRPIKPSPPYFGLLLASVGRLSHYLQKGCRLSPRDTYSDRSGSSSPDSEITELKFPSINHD
Nature of the assay: Human CTPS1 enzyme inhibition, ADP-Glo Max assay. Format: biochemical. As to conditions: ADP-Glo Max assay; Table 10; read-out: Human CTPS1 Enzyme Inhibition, IC50 grouped by potency range (CTPS1). How it is done:
The enzyme inhibitory activities of compounds invented against the target of interest were determined using the ADP-Glo™ Max assay (Promega, UK). Assays for human CTPS1 were performed in 1× assay buffer containing 50 mM Tris, 10 mM MgCl2, 0.01% Tween-20, pH to 8.0 accordingly. Finally, immediately before use, L-cysteine was added to the 1× assay buffer to a final concentration of 2 mM. All reagents are from Sigma-Aldrich unless specified otherwise.
3× human CTPS1 protein was prepared in 1× assay buffer to the final working protein concentration required for the reaction. A 2 uL volume per well of 3× human CTPS1 protein was mixed with 2 uL per well of 3× test compound (compound prepared in 1× assay buffer to an appropriate final 3× compound concentration respective to the concentration response curve designed for the compounds under test) for 10 minutes at 25° C. […] ADP-Glo™ Max reagent was added for 60 minutes (6 μL per well) and subsequently ADP-Glo™ Max development reagent was added for 60 minutes (12 uL per well) prior to signal detection in a microplate reader (EnVision® Multilabel Reader, Perkin Elmer). Following each reagent addition over the course of the assay, assay plates were pulse centrifuged for 30 seconds at 500 rpm.
In all cases, the enzyme converts ATP to ADP and the ADP-Glo™ Max reagent subsequently depletes any remaining endogenous ATP in the reaction system. The ADP-Glo™ Max detection reagent converts the ADP that has been enzymatically produced back into ATP and using ATP as a substrate together with luciferin for the enzyme luciferase, light is generated which produces a detectable luminescence. […] The percentage inhibition produced by each concentration of compound was calculated using the equation shown below: […]
Background: ADP-Glo first removes unused ATP, then detects ADP through luciferase.

The structures appear in SMILES notation. Some results are limits rather than exact numbers.

With `CC(C)(C(=O)Nc1ccc(-c2cncc(N3CCCC3)n2)cc1)c1csc(NS(=O)(=O)C2CC2)n1` [T278, 2-(2-(cyclopropanesulfonamido)thiazol-4-yl)-2-methyl-N-(4-(6-(pyrrolidin-1-yl)pyrazin-2-yl)phenyl)propanamide], the IC50 (usually the midpoint of a concentration-inhibition curve) was under 100 nM.

For `CC(C)(C(=O)Nc1ccc(-c2cncc(F)c2)cc1F)c1csc(NS(=O)(=O)C2CC2)n1` [T126, 2-(2-(cyclopropanesulfonamido)thiazol-4-yl)-N-(2-fluoro-4-(5-fluoropyridin-3-yl)phenyl)-2-methylpropanamide], the IC50 is under 100 nM.

`O=C(Cc1csc(NS(=O)(=O)C2CC2)n1)Nc1ccc(-c2cccnc2)cn1` [T65, N-([3,3′-bipyridin]-6-yl)-2-(2-(cyclopropanesulfonamido)thiazol-4-yl)acetamide]: the IC50 is 100 to 1000 nM.

In the case of `COc1cc(-c2cccnc2)ccc1NC(=O)Cc1csc(NS(=O)(=O)C2CC2)n1` [T215, 2-(2-(cyclopropanesulfonamido)thiazol-4-yl)-N-(2-methoxy-4-(pyridin-3-yl)phenyl)acetamide], the IC50 was under 100 nM.

As to `CN(C(=O)C(C)(C)c1csc(NS(=O)(=O)C2CC2)n1)c1ccc(-c2cccnc2)cc1` [T164, 2-(2-(cyclopropanesulfonamido)thiazol-4-yl)-N,2-dimethyl-N-(4-(pyridin-3-yl)phenyl)propanamide], the IC50 was in the range of 1000 to 10000 nM.

Take `CCOc1cncc(-c2ccc(NC(=O)C(C)(C)c3csc(NS(=O)(=O)C4CC4)n3)c(F)c2)n1` [T134, 2-(2-(cyclopropanesulfonamido)thiazol-4-yl)-N-(4-(6-ethoxypyrazin-2-yl)-2-fluorophenyl)-2-methylpropanamide]: the IC50 is under 100 nM.

Turning to `CC(=O)Nc1cncc(-c2ccc(NC(=O)C(C)(C)c3csc(NS(=O)(=O)C4CC4)n3)cc2)n1` [T281, N-(4-(6-acetamidopyrazin-2-yl)phenyl)-2-(2-(cyclopropanesulfonamido)thiazol-4-yl)-2-methylpropanamide], the IC50 fell in the range of 100 to 1000 nM.

Take `O=C(Cc1csc(NS(=O)(=O)C2CC2)n1)Nc1ccc(-c2cncnc2)nc1` [T23, 2-(2-(cyclopropanesulfonamido)thiazol-4-yl)-N-(6-(pyrimidin-5-yl)pyridin-3-yl)acetamide]: the IC50 lay in the range of 100 to 1000 nM.

`CC(C)(C(=O)Nc1ccc(-c2cncc(S(C)(=O)=O)c2)cc1)c1csc(NS(=O)(=O)C2CC2)n1` [T49, 2-(2-(cyclopropanesulfonamido)thiazol-4-yl)-2-methyl-N-(4-(5-(methylsulfonyl)pyridin-3-yl)phenyl)propanamide]: the IC50 is 100 to 1000 nM.

In the case of `CC(C)(C(=O)Nc1ccc(-c2cncc(Cl)c2)cc1)c1csc(NS(=O)(=O)C2(C)CC2)n1` [T300, N-(4-(5-chloropyridin-3-yl)phenyl)-2-methyl-2-(2-((1-methylcyclopropane)-1-sulfonamido)thiazol-4-yl)propanamide], the IC50 is 100 to 1000 nM.

Take `CC(C)(C(=O)Nc1ccc(-c2cccc(C(F)(F)F)n2)cn1)c1csc(NS(=O)(=O)C2CC2)n1` [T51, 2-(2-(cyclopropanesulfonamido)thiazol-4-yl)-2-methyl-N-(6-(trifluoromethyl)-[2,3′-bipyridin]-6′-yl)propanamide]: the IC50 is under 100 nM.

Turning to `COc1ccccc1-c1ccc(NC(=O)Cc2csc(NS(=O)(=O)C3CC3)n2)cc1` [T246, 2-(2-(cyclopropanesulfonamido)thiazol-4-yl)-N-(2′-methoxy-[1,1′-biphenyl]-4-yl)acetamide], the IC50 was 100 to 1000 nM.

Regarding `O=C(Cc1csc(NS(=O)(=O)C2CC2)n1)Nc1ccc(-c2cccnc2)c(F)c1F` [T188, 2-(2-(cyclopropanesulfonamido)thiazol-4-yl)-N-(2,3-difluoro-4-(pyridin-3-yl)phenyl)acetamide], the IC50 was 100 to 1000 nM.

Consider `CCOc1cncc(-c2ccc(NC(=O)C(C)(C)c3csc(NS(C)(=O)=O)n3)c(C(F)(F)F)c2)n1` [T429, N-(4-(6-ethoxypyrazin-2-yl)-2-(trifluoromethyl)phenyl)-2-methyl-2-(2-(methylsulfonamido)thiazol-4-yl)propanamide], for which the IC50 is under 100 nM.

Consider `CC(C)(C(=O)Nc1ncc(-c2cncc(Cl)c2)cc1F)c1csc(NS(=O)(=O)C2CC2)n1` [T229, N-(5′-chloro-5-fluoro-[3,3′-bipyridin]-6-yl)-2-(2-(cyclopropanesulfonamido)thiazol-4-yl)-2-methylpropanamide], for which the IC50 was under 100 nM.

Regarding `CCOc1cncc(-c2ccc(NC(=O)Cc3csc(NS(=O)(=O)C4CC4)n3)cc2)n1` [T424, 2-(2-(cyclopropanesulfonamido)thiazol-4-yl)-N-(4-(6-ethoxypyrazin-2-yl)phenyl)acetamide], the concentration for half-maximal inhibition (IC50) was under 100 nM.

As to `Cc1ccncc1-c1ccc(NC(=O)Cc2csc(NS(=O)(=O)C3CC3)n2)cc1` [T98, 2-(2-(cyclopropanesulfonamido)thiazol-4-yl)-N-(4-(4-methylpyridin-3-yl)phenyl)acetamide], the IC50 is 100 to 1000 nM.

In the case of `CCOc1cncc(-c2ccc(NC(=O)C(N)c3csc(NS(=O)(=O)C4CC4)n3)cc2)n1` (stereo not shown) [T325, 2-Amino-2-(2-(cyclopropanesulfonamido)thiazol-4-yl)-N-(4-(6-ethoxypyrazin-2-yl)phenyl)acetamide], the IC50 is under 100 nM.

`CC(C)(C(=O)Nc1ncc(-c2cncc(C(F)(F)F)c2)cn1)c1csc(NS(=O)(=O)C2CC2)n1` [T294, 2-(2-(cyclopropanesulfonamido)thiazol-4-yl)-2-methyl-N-(5-(5-(trifluoromethyl)pyridin-3-yl)pyrimidin-2-yl)propanamide]: the IC50 fell in the range of 100 to 1000 nM.

In the case of `COC(C(=O)Nc1ccc(-c2cncc(C(F)(F)F)n2)cc1F)c1csc(NS(=O)(=O)C2CC2)n1` (single isomer, unassigned) [T459, 2-(2-(cyclopropanesulfonamido)thiazol-4-yl)-N-(2-fluoro-4-(6-(trifluoromethyl)pyrazin-2-yl)phenyl)-2-methoxyacetamide], the IC50 is under 100 nM.

`CC(C)(C(=O)Nc1ccc(-c2cccnc2)cn1)c1csc(NS(=O)(=O)C2CC2)n1` [T148, N-([3,3′-bipyridin]-6-yl)-2-(2-(cyclopropanesulfonamido)thiazol-4-yl)-2-methylpropanamide]: the IC50 fell in the range of 100 to 1000 nM.

For the compound `CC(C)(C(=O)Nc1ccc(-c2cncc(C#N)c2)cc1)c1csc(NS(=O)(=O)C2CC2)n1` [T47, N-(4-(5-cyanopyridin-3-yl)phenyl)-2-(2-(cyclopropanesulfonamido)thiazol-4-yl)-2-methylpropanamide], the IC50 was under 100 nM.

In the case of `CC(C)(C(=O)Nc1ccc(-c2cncc(C#N)c2)cn1)c1csc(NS(=O)(=O)C2CC2)n1` [T226, N-(5′-cyano-[3,3′-bipyridin]-6-yl)-2-(2-(cyclopropanesulfonamido)thiazol-4-yl)-2-methylpropanamide], the IC50 is under 100 nM.

Regarding `CCOc1cncc(-c2ccc(NC(=O)C(C)(C)c3csc(NS(=O)(=O)CCOC)n3)c(F)c2)n1` [T432, N-(4-(6-ethoxypyrazin-2-yl)-2-fluorophenyl)-2-(2-((2-methoxyethyl)sulfonamido)thiazol-4-yl)-2-methylpropanamide], the 50% inhibitory concentration (IC50) was 100 to 1000 nM.

With `CC(C)(C(=O)Nc1ccc(-c2cncc(CO)n2)cc1)c1csc(NS(=O)(=O)C2CC2)n1` [T283, 2-(2-(cyclopropanesulfonamido)thiazol-4-yl)-N-(4-(6-(hydroxymethyl)pyrazin-2-yl)phenyl)-2-methylpropanamide], the IC50 fell in the range of 100 to 1000 nM.
